#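 48-hour exposure; five concentrations; linearly interpolated endpoints. Here, GI50 denotes the concentration required for 50% inhibition of growth. Definition used: TGI = concentration required for complete inhibition of growth.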
# Assays:
# Assay in all cases: inhibition of tumour cell growth, NCI panel, 48 h
# U251 CNS = test system: U251 CNS
# HT29 colon = test system: HT29 colon
# KM12 colon = test system: KM12 colon
# M14 melanoma = test system: M14 melanoma
# MDA-N = test system: MDA-N
# DU-145 prostate = test system: DU-145 prostate
# OVCAR-3 ovarian = test system: OVCAR-3 ovarian
# HCC-2998 colon = test system: HCC-2998 colon
# A498 renal = test system: A498 renal
# SN12C renal = test system: SN12C renal
# PC-3 prostate = test system: PC-3 prostate
# HOP-62 NSCLC = test system: HOP-62 NSCLC
# HCT-15 colon = test system: HCT-15 colon
# MOLT-4 leukemia = test system: MOLT-4 leukemia
# OVCAR-4 ovarian = test system: OVCAR-4 ovarian
# ACHN renal = test system: ACHN renal
# HOP-92 NSCLC = test system: HOP-92 NSCLC
# SNB-19 CNS = test system: SNB-19 CNS
# K-562 leukemia = test system: K-562 leukemia
# RXF 393 renal = test system: RXF 393 renal
# MCF7 breast = test system: MCF7 breast
# NCI-H23 lung = test system: NCI-H23 lung
# COLO 205 colon = test system: COLO 205 colon
# A549 NSCLC = test system: A549 NSCLC
# SF-268 CNS = test system: SF-268 CNS
# NCI-H460 lung = test system: NCI-H460 lung
# EKVX NSCLC = test system: EKVX NSCLC
# 786-0 renal = test system: 786-0 renal
# RPMI-8226 leukemia = test system: RPMI-8226 leukemia
# SF-539 CNS = test system: SF-539 CNS
# MALME-3M melanoma = test system: MALME-3M melanoma
# SF-295 CNS = test system: SF-295 CNS
# SW-620 colon = test system: SW-620 colon
# CAKI-1 renal = test system: CAKI-1 renal
# UO-31 renal = test system: UO-31 renal
# SR leukemia = test system: SR leukemia
# SK-MEL-2 melanoma = test system: SK-MEL-2 melanoma
# HL-60(TB) leukemia = test system: HL-60(TB) leukemia
# OVCAR-5 ovarian = test system: OVCAR-5 ovarian
# CCRF-CEM leukemia = test system: CCRF-CEM leukemia
# T-47D breast = test system: T-47D breast
# HS 578T breast = test system: HS 578T breast
# LOX IMVI melanoma = test system: LOX IMVI melanoma
# UACC-62 melanoma = test system: UACC-62 melanoma
# TK-10 renal = test system: TK-10 renal
# MDA-MB-231 breast = test system: MDA-MB-231 breast
# SK-MEL-5 melanoma = test system: SK-MEL-5 melanoma
# BT-549 breast = test system: BT-549 breast
# MDA-MB-435 = test system: MDA-MB-435
# UACC-257 melanoma = test system: UACC-257 melanoma
# NCI/ADR-RES ovarian = test system: NCI/ADR-RES ovarian
# NCI-H226 lung = test system: NCI-H226 lung
# IGROV1 ovarian = test system: IGROV1 ovarian
# SNB-75 CNS = test system: SNB-75 CNS
# HCT-116 colon = test system: HCT-116 colon
# SK-OV-3 ovarian = test system: SK-OV-3 ovarian
# OVCAR-8 ovarian = test system: OVCAR-8 ovarian
# SK-MEL-28 melanoma = test system: SK-MEL-28 melanoma
# NCI-H522 lung = test system: NCI-H522 lung
smiles,measurement,setting,value
COc1ccc2c(ccc3c(C(=O)NCCN(C)CCNC(=O)c4cn(C)c5c4ccc4cc(OC)ccc45)cn(C)c32)c1,TGI,U251 CNS,> 100000 nM
same,TGI,HT29 colon,2700 nM
same,TGI,KM12 colon,3020 nM
same,TGI,M14 melanoma,3000 nM
same,TGI,MDA-N,2910 nM
same,TGI,DU-145 prostate,3320 nM
same,TGI,OVCAR-3 ovarian,2830 nM
same,TGI,HCC-2998 colon,2790 nM
same,TGI,A498 renal,> 100000 nM
same,TGI,SN12C renal,2820 nM
same,TGI,PC-3 prostate,2840 nM
same,TGI,HOP-62 NSCLC,2750 nM
same,TGI,HCT-15 colon,2520 nM
C=C1C(=O)O[C@H]2[C@H]1CC/C(COC(=O)/C=C\C(=O)NCc1ccc(Cn3c(=O)sn(CCCI)c3=O)cc1)=C\CC[C@@]1(C)O[C@@H]21,GI50,MOLT-4 leukemia,557 nM
same,TGI,MOLT-4 leukemia,2990 nM
same,GI50,OVCAR-4 ovarian,603 nM
same,TGI,OVCAR-4 ovarian,1290 nM
same,GI50,ACHN renal,413 nM
same,TGI,ACHN renal,1040 nM
same,GI50,HOP-92 NSCLC,580 nM
same,TGI,HOP-92 NSCLC,1310 nM
same,GI50,SNB-19 CNS,850 nM
same,TGI,SNB-19 CNS,1690 nM
same,GI50,K-562 leukemia,312 nM
same,TGI,K-562 leukemia,13100 nM
same,GI50,U251 CNS,871 nM
same,TGI,U251 CNS,1950 nM
same,GI50,RXF 393 renal,423 nM
same,TGI,RXF 393 renal,1110 nM
same,GI50,MCF7 breast,282 nM
same,TGI,MCF7 breast,1090 nM
same,GI50,NCI-H23 lung,788 nM
same,TGI,NCI-H23 lung,1530 nM
same,GI50,HT29 colon,547 nM
same,TGI,HT29 colon,2460 nM
same,GI50,KM12 colon,866 nM
same,TGI,KM12 colon,1730 nM
same,GI50,M14 melanoma,637 nM
same,TGI,M14 melanoma,1440 nM
same,GI50,COLO 205 colon,568 nM
same,TGI,COLO 205 colon,1510 nM
same,GI50,A549 NSCLC,1050 nM
same,TGI,A549 NSCLC,2960 nM
same,GI50,SF-268 CNS,740 nM
same,TGI,SF-268 CNS,1440 nM
same,GI50,NCI-H460 lung,738 nM
same,TGI,NCI-H460 lung,1580 nM
same,GI50,EKVX NSCLC,729 nM
same,TGI,EKVX NSCLC,1440 nM
same,GI50,DU-145 prostate,654 nM
same,TGI,DU-145 prostate,1310 nM
same,GI50,OVCAR-3 ovarian,281 nM
same,TGI,OVCAR-3 ovarian,927 nM
same,GI50,786-0 renal,770 nM
same,TGI,786-0 renal,1510 nM
same,GI50,RPMI-8226 leukemia,196 nM
same,TGI,RPMI-8226 leukemia,1210 nM
same,GI50,SF-539 CNS,689 nM
same,TGI,SF-539 CNS,1340 nM
same,GI50,MALME-3M melanoma,707 nM
same,TGI,MALME-3M melanoma,1420 nM
same,GI50,SF-295 CNS,2190 nM
same,TGI,SF-295 CNS,8060 nM
same,GI50,SW-620 colon,250 nM
same,TGI,SW-620 colon,891 nM
same,GI50,CAKI-1 renal,298 nM
same,TGI,CAKI-1 renal,999 nM
same,GI50,UO-31 renal,316 nM
same,TGI,UO-31 renal,1020 nM
same,GI50,SR leukemia,170 nM
same,TGI,SR leukemia,7800 nM
same,GI50,SK-MEL-2 melanoma,919 nM
same,TGI,SK-MEL-2 melanoma,1960 nM
same,GI50,HL-60(TB) leukemia,575 nM
same,TGI,HL-60(TB) leukemia,2260 nM
same,GI50,HCC-2998 colon,909 nM
same,TGI,HCC-2998 colon,1660 nM
same,GI50,OVCAR-5 ovarian,752 nM
same,TGI,OVCAR-5 ovarian,1590 nM
same,GI50,A498 renal,831 nM
same,TGI,A498 renal,1550 nM
same,GI50,CCRF-CEM leukemia,155 nM
same,TGI,CCRF-CEM leukemia,1680 nM
same,GI50,T-47D breast,801 nM
same,TGI,T-47D breast,2170 nM
same,GI50,HS 578T breast,851 nM
same,TGI,HS 578T breast,2390 nM
same,GI50,LOX IMVI melanoma,291 nM
same,TGI,LOX IMVI melanoma,983 nM
same,GI50,UACC-62 melanoma,732 nM
same,TGI,UACC-62 melanoma,1450 nM
same,GI50,TK-10 renal,758 nM
same,TGI,TK-10 renal,1520 nM
same,GI50,SN12C renal,643 nM
same,TGI,SN12C renal,1500 nM
same,GI50,MDA-MB-231 breast,593 nM
same,TGI,MDA-MB-231 breast,1340 nM
same,GI50,PC-3 prostate,610 nM
same,TGI,PC-3 prostate,1440 nM
same,GI50,SK-MEL-5 melanoma,813 nM
same,TGI,SK-MEL-5 melanoma,1490 nM
same,GI50,BT-549 breast,622 nM
same,TGI,BT-549 breast,1450 nM
same,GI50,MDA-MB-435,605 nM
same,TGI,MDA-MB-435,1250 nM
same,GI50,UACC-257 melanoma,872 nM
same,TGI,UACC-257 melanoma,1810 nM
same,GI50,NCI/ADR-RES ovarian,988 nM
same,TGI,NCI/ADR-RES ovarian,3610 nM
same,GI50,HOP-62 NSCLC,1510 nM
same,TGI,HOP-62 NSCLC,7680 nM
same,GI50,NCI-H226 lung,883 nM
same,TGI,NCI-H226 lung,2620 nM
same,GI50,IGROV1 ovarian,368 nM
same,TGI,IGROV1 ovarian,1110 nM
same,GI50,SNB-75 CNS,442 nM
same,TGI,SNB-75 CNS,1160 nM
same,GI50,HCT-116 colon,193 nM
same,TGI,HCT-116 colon,770 nM
same,GI50,HCT-15 colon,355 nM
same,TGI,HCT-15 colon,1120 nM
same,GI50,SK-OV-3 ovarian,5080 nM
same,TGI,SK-OV-3 ovarian,11400 nM
same,GI50,OVCAR-8 ovarian,771 nM
same,TGI,OVCAR-8 ovarian,3410 nM
same,GI50,SK-MEL-28 melanoma,800 nM
same,TGI,SK-MEL-28 melanoma,1500 nM
same,GI50,NCI-H522 lung,643 nM
same,TGI,NCI-H522 lung,1730 nM

# Reference: PubChem BioAssay (NCI)
